The source of these data is patent publication US20100196929A1, “STABILISATION OF THE PHENOTYPIC PROPERTIES OF ISOLATED PRIMARY CELLS” (Vrije Universiteit Brussel, priority 2007, published 2010).

For data set [1], the system named is EGF-stimulated adult primary rat hepatocytes. The experiment in a line: DNA synthesis ([methyl-3H]-thymidine incorporation) in EGF-stimulated hepatocytes. It counts as cell-based. The settings on record: 72 hours; for dose-response of inhibition of DNA replication: increasing concentrations (4-Me2N-BAVAH 10-50 μM, AN-8 1-5 μM, DAC 1-500 μM). As for the experimental part: (§1) Hepatocytes (viability >80%) were isolated from male Sprague-Dawley rats by a two-step collagenase perfusion. Cells (0.4×10^5 cells/cm^2) were cultured in MEM/M199 (3:1, v/v), containing 1 mg/ml BSA, 5 μg/ml bovine insulin, 2 mM L-glutamine, antibiotics (7.3 IU/ml benzyl penicillin, 50 μg/ml streptomycin sulphate, 50 μg/ml kanamycin monosulphate and 10 μg/ml sodium ampicillin) and 10% (v/v) fetal calf serum.
(§2) After 4 h, medium was removed and serum-free medium, containing 0.5 μg/ml hydrocortisone and 50 μg/ml EGF, was added and renewed daily.
DAC was dissolved in PBS, 4-Me2N-BAVAH and AN-8 were dissolved in ethanol, to a concentration of 100 mM for DAC and 4-Me2N-BAVAH and 25 mM for AN-8.
(§3) 1) unstimulated cultures, referred to as “negative control” or “−EGF”, where hepatocytes are arrested at the mitogen-dependent R-point. 2) EGF-stimulated cultures, referred to as “positive control” or “+EGF”, in which EGF induces G1/S transition and mitosis. 3) EGF-stimulated cultures treated with DAC and/or in combination with 4-Me2N-BAVAH or AN-8.
DNA replication was measured as incorporation of radioactively labeled thymidine into newly synthesized DNA. Cells were incubated with [methyl-3H]-thymidine (25 Ci/mmol) for 24 hours and harvested at 72 hours in ice-cold PBS, the time point where DNA synthesis in untreated EGF-stimulated cultures is maximal. DNA was precipitated with 30% trichloroacetic acid (TCA) overnight at 4° C. After centrifugation, cells were washed once with 10% TCA and twice with 5% TCA. The pellet was solved in formic acid and radioactively labeled thymidine was measured by liquid scintillation counting.
From the moment of seeding, adult primary rat hepatocytes, stimulated with EGF 4 hours after plating and constantly thereafter, were exposed to different concentrations of 4-Me2N-BAVAH (10 μM, 15 μM, 20 μM, 25 μM and 50 μM), AN-8 (1 μM, 2.5 μM and 5 μM) or DAC (1 μM, 10 μM, 50 μM, 100 μM, 250 μM and 500 μM). [methyl-3H]-Thymidine incorporation was measured at 72 hours.
From the moment of seeding, adult primary rat hepatocytes, stimulated with EGF 4 hours after plating and constantly thereafter, were exposed to different combinations of 4-Me2N-BAVAH and DAC or AN-8 and DAC:
[methyl-3H]-Thymidine incorporation was measured at 72 hours.

Data set [2] has the same test system. The experiment in a line: Albumin secretion into culture medium (ELISA). The format is cell-based. As to conditions: 48-72 hours of culture. As for the experimental part:
Hepatocytes (viability >80%) are isolated from male Sprague-Dawley rats by a two-step collagenase perfusion. Cells (0.4×10^5 cells/cm^2) are cultured in MEM/M199 (3:1, v/v), containing 1 mg/ml BSA, 5 μg/ml bovine insulin, 2 mM L-glutamine, antibiotics (7.3 IU/ml benzyl penicillin, 50 μg/ml streptomycin sulphate, 50 μg/ml kanamycin monosulphate and 10 μg/ml sodium ampicillin) and 10% (v/v) fetal calf serum.
After 4 h, medium was removed and serum-free medium, containing 0.5 μg/ml hydrocortisone and 50 μg/ml EGF, is added and renewed daily.
1) EGF-stimulated cultures, referred to as “positive control” or “control”. 2) EGF-stimulated cultures treated with DAC and/or in combination with 4-Me2N-BAVAH or AN-8.
Medium samples were analyzed for their albumin content by an enzyme-linked immunosorbent assay (ELISA) according to Dunn et al. 1991 (Biotechnol Prog 7(3): 237-245).
From the moment of seeding, adult primary rat hepatocytes, stimulated with EGF 4 hours after plating and constantly thereafter, were exposed to 50 μM 4-Me2N-BAVAH, 5 μM AN-8 or 500 μM DAC. Albumin secretion into the culture medium was measured between 48-72 hours of culture (FIG. 7A-C).
From the moment of seeding, adult primary rat hepatocytes, stimulated with EGF 4 hours after plating and constantly thereafter, were exposed to a combination of 25 μM 4-Me2N-BAVAH and 50 μM DAC. Albumin secretion into the culture medium is measured between 48-72 hours of culture (FIG. 8A).

Data set [3] relates to EGF-stimulated cultured hepatocytes. The experiment in a line: Cell morphology by inverse light microscopy. It counts as cell-based, rat. Here is the method: as §1, §2, §3
Cell morphology was analyzed by inverse light microscopy, using an Optiphot Nikon Phase Contrast microscope.

The next data set deals with CYP1A1. The data set is described as follows: CYP1A1 protein expression (immunoblot). It counts as cell-based, rat. The settings on record: increasing concentrations (DAC 1-500 μM, AN-8 1-5 μM); 72 h. As for the experimental part:
as §1, with “two step” for “two-step”, “serum. After 4 h, medium was removed and serum-free medium, containing 0.5 μg/ml hydrocortisone and 50 μg/ml EGF, was added and renewed daily. DAC was dissolved in PBS, whereas AN-8 was dissolved in ethanol to a concentration of 100 mM for DAC and 25 mM for AN-8.” for “serum.”
1) EGF-stimulated cultures, referred to as C. 2) EGF-stimulated cultures, exposed to 0.02% v/v ethanol, referred to as S. 3) EGF-stimulated cultures treated with DAC and/or AN-8.
At 72 h, cultured hepatocytes were harvested in ice-cold PBS. Cell pellets were lysed in homogenization buffer, sonicated and left for 1 hour on ice. After centrifugation, the protein concentration in the supernatant was determined. 50 μg proteins were separated by sodium dodecyl sulphate polyacrylamide gel electrophoresis (SDS-PAGE, 7.5%) and transferred to nitrocellulose membranes. Subsequently, membranes are immersed into Ponceau S to examine equal sample loading. […] Proteins were detected by using an enhanced chemiluminescence detection system. […]

The next data set concerns hepatoma cell lines. As to conditions: cited from earlier work.
The subject of a further data set is primary hepatocytes. The settings on record: cited from earlier work.

Regarding `CN(C)c1ccc(C(=O)NCCCCC(=O)NO)cc1` [4-Me2N-BAVAH, 5-(4-dimethylaminobenzoyl)-aminovaleric acid hydroxamide], the “inhibition of the DNA synthesis” value in data set [1] (50 μM) was “complete inhibition”. For the same molecule, the “dose-response of inhibition of DNA replication” value in data set [1] is on record as “clear dose-response relationship”. In addition, the “increase in albumin secretion compared to control cultures” value (shortened to “increase in albumin secretion”) in data set [2] (50 μM) is 2.4 fold.
As for `O=C(CCCCCNC(=O)c1ccc(N2CCCC2)cc1)NO` [AN-8], the “inhibition of the DNA synthesis” value in data set [1] (5 μM) is “complete inhibition”. Also, the “dose-response of inhibition of DNA replication” value in data set [1] is “clear dose-response relationship”. Moreover, in data set [3] (5 μM), the “cell shape vs untreated control cultures with EGF alone” value is “retained better the in vivo-like cuboidal shape” and the “inhibition of proliferation (morphological appearance) vs untreated +EGF culture” value was “clear inhibition of proliferation”. For the same molecule, the “increase in albumin secretion” value in data set [2] (5 μM) was determined as 2.1 fold. The “CYP1A1 protein expression vs untreated hepatocyte cultures” value with CYP1A1 is reported as “dose-dependent higher CYP1A1 protein expression”.
With `Nc1ncn([C@H]2C[C@H](O)[C@@H](CO)O2)c(=O)n1` [DAC, 5-aza-2′-deoxycytidine], the “inhibition of the DNA synthesis” value in data set [1] (500 μM) is listed as “complete inhibition”. For the same molecule, the “dose-response of inhibition of DNA replication” value in data set [1] is on record as “clear dose-response relationship”. For the same molecule, in data set [3] (500 μM), the “cell shape vs untreated control cultures with EGF alone” value was “retained better the in vivo-like cuboidal shape” and the “inhibition of proliferation (morphological appearance) vs untreated +EGF culture” value is on record as “clear inhibition of proliferation”. In addition, the “increase in albumin secretion” value in data set [2] (500 μM) is 1.8 fold. Further, the “CYP1A1 protein expression vs untreated hepatocyte cultures” value in the data set on CYP1A1 is recorded as “dose-dependent higher CYP1A1 protein expression”.
Take `CCN(CC)Cc1ccc2cc(COC(=O)Nc3ccc(C(=O)NO)cc3)ccc2c1` [ITF2357]: the apoptosis entry is “induce apoptosis” in the data set on hepatoma cell lines and “not” in the data set on primary hepatocytes.
With `CC(/C=C/C(=O)NO)=C\[C@@H](C)C(=O)c1ccc(N(C)C)cc1` [TSA, Trichostatin A], the apoptosis result is “induce apoptosis” in the data set on hepatoma cell lines and “not” in the data set with primary hepatocytes.
On to `CCCC(CCC)C(=O)O` [valproate], for which the apoptosis entry in the data set with hepatoma cell lines is given as “induce apoptosis”; in the data set on primary hepatocytes, “not”.
